What was measured:
[1] = test system: patients with BPH; test: 48-week atamestane treatment (400 mg vs placebo), testosterone serum concentration; type: in vivo, human; details: daily dose 400 mg
Text: (§1) Tables 3 and 4 show the results after a 48-week treatment.

[2] = test system: patients with BPH; test: 48-week atamestane treatment (100 mg, 300 mg vs placebo), testosterone serum concentration; type: in vivo, human; details: for Testosterone Serum Concentration Δ % (X ± SD): 48 weeks
Text: as §1

[3] = test system: men with BPH (average age above 60 years); test: Testosterone/estradiol (T/E2) ratio before and after atamestane, 4 clinical studies, 7 treatment groups; type: in vivo, human
Protocol: Gradual lowering of the estrogen concentration induces a counterregulatory stimulation of androgen synthesis. To a certain extent, there is an endogenic testosterone substitution, by which the androgen/estrogen balance is again brought back to the “youthful” range. This substantiates the results of the longer-term treatment of older men (average age above 60 years) with the selective aromatase inhibitor atamestane.
(§2) In several clinical studies, atamestane was administered at varying dosages and over periods of up to 48 weeks to men in this age group to treat an existing BPH. […] Table 5 provides the testosterone/estrogen ratio before and after the administration of atamestane for patient populations from 4 studies and 7 treatment groups.
Assuming that the testosterone dominance that was reduced by 30-50% in the age group of patients over 60 years compared to the younger years (relative androgen deficiency) caused the symptoms of “male menopause,” the goal is thus to restore the original “balance of power” between androgens and estrogens by administering a preferably selective aromatase inhibitor by stimulating endogenic testosterone substitution without the necessity of supplying androgens exogenically. Based on the understanding that the ratio prevailing in age is the result of a 30-50% reduction compared to the youthful values, i.e., is always 50-70% of the previous value, the corresponding “youthful” previous value can be calculated for each individual patient. A patient with a testosterone/estradiol ratio of 230:1 must accordingly be adjusted to a new balance in the range between […] to 460:1, so that a preceding 30 or 50% reduction is compensated for.

[4] = test system: patients with BPH; test: 24-week four-way study of atamestane versus placebo, testosterone serum concentration; type: in vivo, human; details: for Testosterone Serum Concentration Δ % (median ± SD): 24 weeks
[5] = test system: patients with BPH; test: Longer-term clinical studies with atamestane in BPH patients, hormone levels; type: in vivo, human
Protocol: as §2
The administration of atamestane consistently results in a resetting of the testosterone/estradiol balance in favor of the androgenic component. This action was detectable over the entire observation period up to a maximum of 48 weeks of treatment.

[6] = test system: patients with prostate cancer; details: pharmacological doses; cited from earlier work

CC1=CC(=O)C=C2CC[C@@H]3[C@H](CC[C@]4(C)C(=O)CC[C@@H]34)[C@@]12C [atamestane, 1-Methyl-androsta-1,4-diene-3,17-dione]
Testosterone Serum Concentration Δ % (X ± SD) ([1]; 48 weeks): 42.9 ± 53.5%
Testosterone Serum Concentration After 48 Weeks ([1]; previous value 4.2): 5.4 ng/mL
Testosterone Serum Concentration Δ % (X ± SD) ([2]; daily dose 100 mg): 19.0 ± 36.8%
Testosterone Serum Concentration After 48 Weeks ([2]; daily dose 100 mg, previous value 5.1): 5.9 ng/mL
Testosterone Serum Concentration Δ % (X ± SD) ([2]; daily dose 300 mg): 41.7 ± 46.4%
Testosterone Serum Concentration After 48 Weeks ([2]; daily dose 300 mg, previous value 4.7): 6.6 ng/mL
T/E2 Ratio % Δ ([3]; 100 mg, 24 weeks): +48%
T/E2 Ratio % Δ ([3]; 100 mg, 48 weeks): +41%
T/E2 Ratio % Δ ([3]; 200 mg t.i.d., 8 weeks): +46%
T/E2 Ratio % Δ ([3]; 300 mg, 24 weeks): +58%
T/E2 Ratio % Δ ([3]; 300 mg, 48 weeks): +46%
T/E2 Ratio % Δ ([3]; 400 mg, 48 weeks): +54%
T/E2 Ratio % Δ ([3]; 600 mg, 24 weeks): +61%
achieved T/E2 versus calculated "youthful" target range ([3]; daily dose of 100 mg): target range is generally readily met
achieved T/E2 versus calculated "youthful" target range ([3]; higher dosages (above 100 mg daily)): somewhat above the target range
alteration of the testosterone/estradiol ratio ([3]; varying dosages, periods of up to 48 weeks): significant alteration of the testosterone/estradiol ratio in favor of testosterone
Testosterone Serum Concentration Δ % (median ± SD) ([4]; daily dose 100 mg): 29.57 ± 34.70%
Testosterone Serum Concentration After 24 Weeks ([4]; daily dose 100 mg, previous value 4.41): 5.57 ng/mL
Testosterone Serum Concentration Δ % (median ± SD) ([4]; daily dose 300 mg): 40.88 ± 156.12%
Testosterone Serum Concentration After 24 Weeks ([4]; daily dose 300 mg, previous value 4.50): 6.15 ng/mL
Testosterone Serum Concentration Δ % (median ± SD) ([4]; daily dose 600 mg): 41.19 ± 37.62%
Testosterone Serum Concentration After 24 Weeks ([4]; daily dose 600 mg, previous value 3.78): 5.40 ng/mL
peripheral estrogen reduction ([5]; daily doses of 100 mg-600 mg): equally intense
testosterone concentration after longer-term treatment ([5]; treatment lasting 24 to 48 weeks, patients with BPH): significant increase

CC/C(=C(/CC)c1ccc(O)cc1)c1ccc(O)cc1 [diethylstilbestrol]
testosterone level in the serum [6]: castration level

— patent US6696432B1, “Combination of dehydroepiandrosterone and aromatase inhibitors and use of this combination to produce a medicament for treating relative and absolute androgen deficiency in men” (Schering Aktiengesellschaft, priority 1996, dated 2004)
